Inconclusive results and toxic doses are left out.
Tested on: BDF1 mice, B16 melanoma ip, median survival T/C
Experiment: NCI In Vivo Anticancer Drug Screen. Data for tumor model B16 Melanoma (intraperitoneal) in B6D2F1 (BDF1) mice
Settings: endpoint: median survival time, higher = longer survival
In short: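 Transplantable tumor model; survival or tumor size measured; reported as T/C, treated over vehicle control.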

[1] = dose: 25.0 mg/kg/injection, schedule: Q01DX009 (ip), vehicle: saline with Tween-80
[2] = dose: 50.0 mg/kg/injection, schedule: Q01DX009 (ip), vehicle: saline with Tween-80
[3] = dose: 100.0 mg/kg/injection, schedule: Q01DX009 (ip), vehicle: saline with Tween-80
[4] = dose: 100.0 mg/kg/injection, schedule: Q04DX003 (ip), vehicle: saline with Tween-80
[5] = dose: 200.0 mg/kg/injection, schedule: Q01DX009 (ip), vehicle: saline with Tween-80
[6] = dose: 25.0 mg/kg/injection, schedule: Q01DX009 (ip), vehicle: Klucel (hydroxypropylcellulose) (HPC)
[7] = dose: 50.0 mg/kg/injection, schedule: Q01DX009 (ip), vehicle: Klucel (hydroxypropylcellulose) (HPC)
[8] = dose: 100.0 mg/kg/injection, schedule: Q01DX009 (ip), vehicle: Klucel (hydroxypropylcellulose) (HPC)
[9] = dose: 50.0 mg/kg/injection, schedule: Q01DX009 (ip), vehicle: saline
[10] = dose: 100.0 mg/kg/injection, schedule: Q01DX009 (ip), vehicle: saline
[11] = dose: 200.0 mg/kg/injection, schedule: Q01DX009 (ip), vehicle: saline
[12] = dose: 12.5 mg/kg/injection, schedule: Q01DX009 (ip), vehicle: saline
[13] = dose: 25.0 mg/kg/injection, schedule: Q01DX009 (ip), vehicle: saline
[14] = dose: 6.25 mg/kg/injection, schedule: Q01DX009 (ip), vehicle: saline
[15] = dose: 200.0 mg/kg/injection, schedule: Q01DX009 (ip), vehicle: Klucel (hydroxypropylcellulose) (HPC)
[16] = dose: 400.0 mg/kg/injection, schedule: Q01DX009 (ip), vehicle: Klucel (hydroxypropylcellulose) (HPC)

## O=C(COc1ccc(Cl)cc1)Nc1cc(C(F)(F)F)ccc1Cl
[1]
  T/C: 103 % of control
[2]
  T/C: 96 % of control
[3]
  T/C: 105 % of control

## OC(C(c1ccccc1)c1ccccn1)(C(F)(F)F)C(F)(F)F (centres undefined)
dose: 66.0 mg/kg/injection, schedule: Q04DX003 (ip), vehicle: saline with Tween-80
  T/C: 112 % of control
[3]
  T/C: 110 % of control
[4]
  T/C: 117 % of control
dose: 150.0 mg/kg/injection, schedule: Q04DX003 (ip), vehicle: saline with Tween-80
  T/C: 115 % of control
[5]
  T/C: 112 % of control
dose: 400.0 mg/kg/injection, schedule: Q01DX009 (ip), vehicle: saline with Tween-80
  T/C: 105 % of control

## CCNC(C)(C)C(S)c1ccc(Cl)s1 (centres undefined)
dose: 18.75 mg/kg/injection, schedule: Q01DX009 (ip), vehicle: saline with Tween-80
  T/C: 97 % of control
[6]
  T/C: 97 % of control
dose: 37.5 mg/kg/injection, schedule: Q01DX009 (ip), vehicle: saline with Tween-80
  T/C: 101 % of control
[7]
  T/C: 101 % of control
dose: 75.0 mg/kg/injection, schedule: Q01DX009 (ip), vehicle: saline with Tween-80
  T/C: 100 % of control
[8]
  T/C: 95 % of control
dose: 150.0 mg/kg/injection, schedule: Q01DX009 (ip), vehicle: saline with Tween-80
  T/C: 106 % of control

## CCCCC(CC)COP(OCC(CC)CCCC)OCC(CC)CCCC (centres undefined)
[4]
  T/C: 93 % of control
dose: 200.0 mg/kg/injection, schedule: Q04DX003 (ip), vehicle: saline with Tween-80
  T/C: 86 % of control

## COc1c2c([n+](C)c3c(OC)cccc13)OC(C(C)C)C2 (centres undefined)
dose: 0.25 mg/kg/injection, schedule: Q01DX009 (ip), vehicle: saline sonified
  T/C: 102 % of control
dose: 0.5 mg/kg/injection, schedule: Q01DX009 (ip), vehicle: saline sonified
  T/C: 100 % of control
dose: 0.75 mg/kg/injection, schedule: Q01DX009 (ip), vehicle: saline
  T/C: 94 % of control
dose: 1.0 mg/kg/injection, schedule: Q01DX009 (ip), vehicle: saline sonified
  T/C: 102 % of control
dose: 1.5 mg/kg/injection, schedule: Q01DX009 (ip), vehicle: saline
  T/C: 88 % of control
dose: 1.5 mg/kg/injection, schedule: Q04DX003 (ip), vehicle: saline
  T/C: 107 % of control
dose: 3.0 mg/kg/injection, schedule: Q04DX003 (ip), vehicle: saline
  T/C: 89 % of control

## O=C(O)c1ccc(S(=O)(=O)O)cc1C(=O)O
[9]
  T/C: 92 % of control
[10]
  T/C: 96 % of control
[11]
  T/C: 98 % of control

## COc1ccc(Oc2cc(CC3c4cc(OC)c(OC)cc4CCN3C)c([N+](=O)[O-])cc2OC)cc1OC (centres undefined)
[12]
  T/C: 100 % of control
[13]
  T/C: 100 % of control
[9]
  T/C: 98 % of control

## C[n+]1cc2c3ccccc3c(N)cc2c2ccccc21
dose: 3.13 mg/kg/injection, schedule: Q01DX009 (ip), vehicle: saline
  T/C: 106 % of control

## CC(=O)Nc1cc2c(cc1Br)-c1ccccc1C2O (centres undefined)
dose: 12.5 mg/kg/injection, schedule: Q01DX009 (ip), vehicle: saline with Tween-80
  T/C: 92 % of control
dose: 12.5 mg/kg/injection, schedule: Q04DX003 (ip), vehicle: saline with Tween-80
  T/C: 92 % of control
[1]
  T/C: 102 % of control
dose: 25.0 mg/kg/injection, schedule: Q04DX003 (ip), vehicle: saline with Tween-80
  T/C: 100 % of control
[2]
  T/C: 89 % of control
dose: 50.0 mg/kg/injection, schedule: Q04DX003 (ip), vehicle: saline with Tween-80
  T/C: 95 % of control
[4]
  T/C: 90 % of control

## O=[N+]([O-])O.[Ga]
[9]
  T/C: 102 % of control
[10]
  T/C: 92 % of control

## CN1C2CCC1CC(OC1c3ccccc3CCc3ccccc31)C2 (centres undefined)
dose: 3.12 mg/kg/injection, schedule: Q01DX009 (ip), vehicle: saline
  T/C: 90 % of control
[14]
  T/C: 97 % of control
[12]
  T/C: 97 % of control

## Cc1ccc2nc(-c3ccc(N=Cc4ccccc4O)cc3)sc2c1
dose: 25.0 mg/kg/injection, schedule: Q01DX009 (ip), vehicle: olive oil, sesame oil, peanut oil
  T/C: 87 % of control
dose: 50.0 mg/kg/injection, schedule: Q01DX009 (ip), vehicle: olive oil, sesame oil, peanut oil
  T/C: 86 % of control

## CCC(C)(CC)OC(N)=O
[1]
  T/C: 112 % of control
[13]
  T/C: 95 % of control
[2]
  T/C: 112 % of control
[9]
  T/C: 95 % of control
[3]
  T/C: 105 % of control
[10]
  T/C: 100 % of control
[5]
  T/C: 104 % of control
[11]
  T/C: 95 % of control

## O=C([O-])C[n+]1ccccc1
[10]
  T/C: 108 % of control
[11]
  T/C: 103 % of control

## CC1=C2C(=O)c3ccccc3C2=C(C)S(=O)(=O)O1
dose: 50.0 mg/kg/injection, schedule: Q01DX009 (ip), vehicle: carboxymethylcellulose (CMC)
  T/C: 99 % of control
dose: 100.0 mg/kg/injection, schedule: Q01DX009 (ip), vehicle: carboxymethylcellulose (CMC)
  T/C: 87 % of control

## O=C(O)C1CC1.[Ag]
dose: 0.78 mg/kg/injection, schedule: Q01DX009 (ip), vehicle: water
  T/C: 114 % of control
dose: 1.56 mg/kg/injection, schedule: Q01DX009 (ip), vehicle: water
  T/C: 108 % of control
dose: 3.12 mg/kg/injection, schedule: Q01DX009 (ip), vehicle: water
  T/C: 108 % of control
dose: 6.25 mg/kg/injection, schedule: Q01DX009 (ip), vehicle: water
  T/C: 93 % of control
dose: 12.5 mg/kg/injection, schedule: Q01DX009 (ip), vehicle: water
  T/C: 91 % of control

## Nc1cc(Cl)c2cccnc2c1O
dose: 22.0 mg/kg/injection, schedule: Q01DX009 (ip), vehicle: saline
  T/C: 115 % of control
dose: 33.0 mg/kg/injection, schedule: Q01DX009 (ip), vehicle: saline
  T/C: 120 % of control
dose: 44.0 mg/kg/injection, schedule: Q04DX003 (ip), vehicle: saline
  T/C: 106 % of control
dose: 66.0 mg/kg/injection, schedule: Q04DX003 (ip), vehicle: saline
  T/C: 106 % of control
dose: 100.0 mg/kg/injection, schedule: Q04DX003 (ip), vehicle: saline
  T/C: 86 % of control

## CCCCCCCC(O)CCCCC (centres undefined)
[8]
  T/C: 99 % of control
[15]
  T/C: 103 % of control
[16]
  T/C: 94 % of control

## CC[C@](C)(O)C(=O)O[C@H]1C(=O)O[C@@H]2C[C@H]3C(C)=CC(=O)[C@@H](O)[C@]3(C)[C@H]3[C@@]4(O)OC[C@]32[C@@H]1[C@@H](C)[C@H]4O
dose: 0.13 mg/kg/injection, schedule: Q01DX009 (ip), vehicle: Klucel (hydroxypropylcellulose) (HPC)
  T/C: 110 % of control
dose: 0.13 mg/kg/injection, schedule: Q01DX009 (ip), vehicle: steriod suspending solution
  T/C: 108 % of control
dose: 0.25 mg/kg/injection, schedule: Q01DX009 (ip), vehicle: Klucel (hydroxypropylcellulose) (HPC)
  T/C: 107 % of control
dose: 0.25 mg/kg/injection, schedule: Q01DX009 (ip), vehicle: saline
  T/C: 121 % of control
dose: 0.25 mg/kg/injection, schedule: Q01DX009 (ip), vehicle: steriod suspending solution
  T/C: 122 % of control
dose: 0.5 mg/kg/injection, schedule: Q01DX009 (ip), vehicle: Klucel (hydroxypropylcellulose) (HPC)
  T/C: 114 % of control
dose: 0.5 mg/kg/injection, schedule: Q01DX009 (ip), vehicle: saline
  T/C: 154 % of control
dose: 1.0 mg/kg/injection, schedule: Q01DX009 (ip), vehicle: steriod suspending solution
  T/C: 114 % of control
dose: 125.0 micrograms/kg/injection, schedule: Q01DX009 (ip), vehicle: saline with Tween-80
  T/C: 121 % of control
dose: 250.0 micrograms/kg/injection, schedule: Q01DX009 (ip), vehicle: saline with Tween-80
  T/C: 112 % of control
dose: 500.0 micrograms/kg/injection, schedule: Q01DX009 (ip), vehicle: saline with Tween-80
  T/C: 121 % of control

## O=c1[nH]c2ccccc2c2cc3ccccc3cc12
[14]
  T/C: 94 % of control
[12]
  T/C: 86 % of control

## CCC1OC(=O)CC(O)C(C)C(OC2OC(C)C(O)C(N(C)C)C2O)C(CC=O)CC(C)C(=O)/C=C/C2(C)OC2C1C (centres undefined)
dose: 12.5 mg/kg/injection, schedule: Q01DX009 (ip), vehicle: Klucel (hydroxypropylcellulose) (HPC)
  T/C: 96 % of control
[6]
  T/C: 97 % of control
[7]
  T/C: 98 % of control
[8]
  T/C: 88 % of control

## NC(=O)c1ccccc1C(N)=O
[8]
  T/C: 100 % of control
[15]
  T/C: 106 % of control
[16]
  T/C: 93 % of control

## OC1COCOC1 (tested in a mixture with another compound)
[10]
  T/C: 115 % of control
[11]
  T/C: 106 % of control
dose: 400.0 mg/kg/injection, schedule: Q01DX009 (ip), vehicle: saline
  T/C: 106 % of control

## CCC(=O)OC1(c2ccccc2)CCN(C)C1C (centres undefined)
[14]
  T/C: 102 % of control
[12]
  T/C: 102 % of control
[13]
  T/C: 95 % of control
[9]
  T/C: 97 % of control
[10]
  T/C: 90 % of control

Source: PubChem BioAssay AID192 (DTP/NCI, 2004)
